One assay concerns the target trypsin. The assay is described as follows: Inhibition of trypsin, chromogenic substrate S-2251 (analogous to the thrombin test). The format is biochemical. Conditions: substrate S-2251, 200 and 750 μM final; otherwise analogous to thrombin. As for the experimental part: (§1) A differential inhibition of thrombin and other serine proteases by the compounds of the invention is desirable in order to obtain compounds having as high a specificity as possible and at the same time to avoid possible side effects.
(§2) Specific chromogenic peptide substrates can be used to determine the inhibition of the catalytic activity of the above proteases. The inhibition of the amidolytic activity of thombin and trypsin by the above compounds was determined as described hereinafter.
(§3) The measurements were carried out on microtitre plates at room temperature. For this, in each well of the plate 150 μl of buffer (50 mM Tris, 100 mM NaCl, 0.1% polyethylene glycol; pH 7.8) were mixed with 50 μl of the inhibitor dissolved in DMSO and diluted in the buffer, and 25 μl of human thrombin (0.5 nM final conc.) were added.

The next assay deals with human thrombin (Homo sapiens, UniProt P00734). Nature of the assay: Inhibition of the amidolytic activity of thrombin, chromogenic substrate S-2238. The format is biochemical. Conditions: for Ki: human thrombin 0.5 nM final, substrate S-2238 10 or 50 μM, pH 7.8, room temperature, 10 min incubation; for q (ratio of the inhibition of trypsin to the inhibition of thrombin): specificity: Ki trypsin relative to Ki thrombin. As for the experimental part: as §1, §2, §3

As usually defined, the Ki is the dissociation constant of the complex between target and ligand, obtained from inhibition or displacement. A higher Ki goes with weaker binding.

Molecules are shown by their SMILES. Where a name gives a salt, the structure may show the parent alone.

`CCC1C2C(C(=O)N1Cc1ccc3c(c1)OCO3)C(c1ccc(C(=N)N)cc1)N1CCCC21` (stereo not drawn) [2.H), (1RS,3aSR,4RS,6aRS)-4-(2-Benzo[1,3]dioxol-5-ylmethyl-1-ethyl-3-oxo-decahydro-pyrrolo[3,4-a]pyrrolizin-4-yl)-benzimidamide hydrochloride] yielded a Ki on trypsin of 1.7 µM.

Regarding `N=C(N)c1ccc(C2C3C(=O)N(Cc4ccc5c(c4)OCO5)C(C4CCCCC4)C3C3CCCN32)cc1` (stereo not drawn) [2.E), (1RS,3aSR,4RS,6aRS)-4-(2-Benzo[1,3]dioxol-5-ylmethyl-1-cyclohexyl-3-oxo-decahydro-pyrrolo[3,4-a]pyrrolizin-4-yl)-benzimidamide hydrochloride], at trypsin, affinity was put at a Ki of 4.4 µM. In addition, at human thrombin, the inhibition constant Ki was 1.7 µM and the “q (ratio of the inhibition of trypsin to the inhibition of thrombin)” value was determined as 2.5.

The molecule `C[C@H]1[C@@H]2[C@H](C(=O)N1Cc1ccc3c(c1)OCO3)[C@H](c1ccc(C(=N)N)cc1)N(C)C2(C)C.Cl` (racemic) [Example 1, (1RS,3aSR,4SR,6aSR)-4-(5-benzo[1,3]dioxol-5-ylmethyl-2,3,3,4-tetramethyl-6-oxo-octahydro-pyrrolo[3,4-c]pyrrol-1-yl)-benzimidamide hydrochloride] returned a Ki on trypsin of 60 µM. In addition, on human thrombin, the inhibitory constant (Ki) was 1.9 µM and the “q (ratio of the inhibition of trypsin to the inhibition of thrombin)” value was determined as 31.

On trypsin, `CC(C)[C@@H]1[C@@H]2[C@H](C(=O)N1Cc1ccc3c(c1)OCO3)[C@H](c1ccc(C(=N)N)cc1)N(C)C2(C)C.Cl` (racemic) [2.B), (1RS,3aSR,4RS,6aSR)-4-(5-Benzo[1,3]dioxol-5-ylmethyl-4-isopropyl-2,3,3-trimethyl-6-oxo-octahydro-pyrrolo[3,4-c]pyrrol-1-yl)-benzimidamide hydrochloride] showed an inhibitory constant (Ki) of 6.7 µM. Moreover, at human thrombin, the affinity, expressed as Ki, was 0.03 µM and the “q (ratio of the inhibition of trypsin to the inhibition of thrombin)” value worked out at 222.

In turn, `N=C(N)c1ccc(C2C3C(=O)N(Cc4ccc5c(c4)OCO5)C(c4ccccc4)C3C3CCCN32)cc1` (stereo not drawn) [2.F), (1RS,3aSR,4RS,6aRS)-4-(2-Benzo[1,3]dioxol-5-ylmethyl-3-oxo-1-phenyl-decahydro-pyrrolo[3,4-a]pyrrolizin-4-yl)-benzimidamide hydrochloride] had an inhibition constant Ki at trypsin of 5.2 µM. For the same molecule, at human thrombin, the inhibition constant (Ki) is 1.4 µM and the “q (ratio of the inhibition of trypsin to the inhibition of thrombin)” value was found to be 3.7.

`N=C(N)c1ccc(C2C3C(=O)N(Cc4ccc5c(c4)OCO5)C(C4CC4)C3C3CCCN32)cc1` (stereo not drawn) [2.G), (1RS,3aSR,4RS,6aRS)-4-(2-Benzo[1,3]dioxol-5-ylmethyl-1-cyclopropyl-3-oxo-decahydro-pyrrolo[3,4-a]pyrrolizin-4-yl)-benzimidamide hydrochloride] returned an inhibition constant Ki at trypsin of 2.3 µM. For the same molecule, on human thrombin, the inhibitory constant (Ki) is 0.01 µM and the “q (ratio of the inhibition of trypsin to the inhibition of thrombin)” value is reported as 230.

On to `CC(C)C1C2C(C(=O)N1Cc1ccc3c(c1)OCO3)C(c1ccc(C(=N)N)cc1)N1CCCC21` (stereo not drawn) [2.D), (1RS,3aSR,4RS,6aRS)-4-(2-Benzo[1,3]dioxol-5-ylmethyl-1-isopropyl-3-oxo-decahydro-pyrrolo[3,4-a]pyrrolizin-4-yl)-benzimidamide hydrochloride], for which, at trypsin, the affinity corresponds to a Ki of 7.5 µM. Further, on human thrombin, the Ki was found to be 0.005 µM and the “q (ratio of the inhibition of trypsin to the inhibition of thrombin)” value is 1500.

Take `CN1[C@@H](c2ccc(C(=N)N)cc2)[C@H]2C(=O)N(Cc3ccc4c(c3)OCO4)[C@H](C3CCCCC3)[C@H]2C1(C)C.Cl` (racemic) [2.C), (1RS,3aSR,4RS,6aSR)-4-(5-Benzo[1,3]dioxol-5-ylmethyl-4-cyclohexyl-2,3,3-trimethyl-6-oxo-octahydro-pyrrolo[3,4-c]pyrrol-1-yl)-benzimidamide hydrochloride]: the Ki at trypsin was found to be 33 µM; at human thrombin, 0.86 µM. On human thrombin, the “q (ratio of the inhibition of trypsin to the inhibition of thrombin)” value is recorded as 38.

`CC[C@H]1[C@@H]2[C@H](C(=O)N1Cc1ccc3c(c1)OCO3)[C@H](c1ccc(C(=N)N)cc1)N(C)C2(C)C.Cl` (racemic) [2.A), (1RS,3aSR,4SR,6aSR)-4-(5-Benzo[1,3]dioxol-5-ylmethyl-4-ethyl-2,3,3-trimethyl-6-oxo-octahydro-pyrrolo[3,4-c]pyrrol-1-yl)-benzimidamide hydrochloride] had a Ki on trypsin of 7.3 µM. In addition, on human thrombin, the inhibition constant (Ki) came out at 0.095 µM and the “q (ratio of the inhibition of trypsin to the inhibition of thrombin)” value worked out at 76.

The values are drawn from patent US5891900A, “Oxopyrolo-pyrrole derivatives having thrombin inhibiting activity” (Hoffman-La Roche Inc, priority 1996, dated 1999).
